Measurements published in US8747362B2, “Microneedle device” (Hisamitsu Pharmaceutical Co., Inc, priority 2009, dated 2014).

Assays:
[1] = Viscosity measurement of carrier (coating agent) by micron-sample viscometer; type: physicochemical; conditions: 25° C., average of 10
Experimental: • Material: Polylactic acid having a weight average molecular weight of about 80,000, Height: 500 μm, Density: 625 needles/cm^2, Formulation area of a microneedle base: 1 cm^2/patch (b) Metal Mask Plate • Pitch: 400 μm, Mask thickness: 100 μm, Opening: square shape (one side: 250 μm) (c) Environmental Setting: Room Temperature (25° C.)
The concentration of octreotide acetate and the concentration of propylene glycol or glycerin were set as shown in Table 3 and Table 4, and the materials were set in a rotating/revolving mixer to prepare a carrier (a coating agent). The viscosity of the obtained carrier (the coating agent) was measured 10 times by use of a micron-sample viscometer (RHEOSENSE INC., Micron Sample-Viscometer/Rheometer-on-a-chip VROCTM); calculated average values are shown in. Table 3 and Table 4.

[2] = Content (amount deposited) of octreotide acetate per patch of microneedle device, BCA method; type: physicochemical; conditions: average of 10
Experimental: • Material: Polylactic acid having a weight average molecular weight of about 80,000, Height: 500 μm, Density: 625 needles/cm^2, Formulation area of a microneedle base: 1 cm^2/patch (b) Metal Mask Plate • Pitch: 400 μm, Mask thickness: 100 μm, Opening: square shape (one side: 250 μm) (c) Environmental Setting: Room Temperature (25° C.) The concentration of octreotide acetate and the concentration of propylene glycol or glycerin were set as shown in Table 3 and Table 4, and the materials were set in a rotating/revolving mixer to prepare a carrier (a coating agent). Application of the carrier (the coating agent) to microneedles was performed by a predetermined method. More specifically, the carrier the coating agent) was swept by a spatula to fill openings of a metal mask with the carrier. Microneedles (needles) were inserted in the openings thus filled, and then taken out therefrom, and subsequently, the carrier (the coating agent) thus applied on the microneedles was extracted by purified water. By a BCA method (an octreotide standard), the content (an amount deposited) of octreotide acetate per one patch (sheet) of a microneedle device was measured 10 times; calculated average values are shown in Table 3 and Table 4.

[3] = carrier: octreotide acetate 20 / glycerin 80 % by weight
[4] = carrier: octreotide acetate 20 / propylene glycol 80 % by weight
[5] = carrier: octreotide acetate 30 / glycerin 70 % by weight
[6] = carrier: octreotide acetate 35 / glycerin 65 % by weight
[7] = carrier: octreotide acetate 40 / glycerin 60 % by weight
[8] = carrier: octreotide acetate 40 / propylene glycol 60 % by weight
[9] = carrier: octreotide acetate 50 / glycerin 50 % by weight
[10] = carrier: octreotide acetate 50 / propylene glycol 50 % by weight
[11] = carrier: octreotide acetate 60 / glycerin 40 % by weight
[12] = carrier: octreotide acetate 60 / propylene glycol 40 % by weight
[13] = carrier: octreotide acetate 70 / propylene glycol 30 % by weight
[14] = carrier: octreotide acetate 80 / propylene glycol 20 % by weight

Viscosity Avg. [1, 3]: 2900 cps
Viscosity Avg. [1, 4]: 200 cps
Viscosity Avg. [1, 5]: 9000 cps
Viscosity Avg. [1, 6]: 12000 cps
Viscosity Avg. [1, 7]: 15000 cps
Viscosity Avg. [1, 8]: 1600 cps
Viscosity Avg. [1, 9]: 21000 cps
Viscosity Avg. [1, 10]: 5400 cps
Viscosity Avg. [1, 11]: 27000 cps
Viscosity Avg. [1, 12]: 15000 cps
Viscosity Avg. [1, 13]: 45000 cps
Viscosity Avg. [1, 14]: 133000 cps
Content Avg. [2, 3]: 6 μg/patch
Content Avg. [2, 4]: 4 μg/patch
Content Avg. [2, 5]: 39 μg/patch
Content Avg. [2, 6]: 53 μg/patch
Content Avg. [2, 7]: 89 μg/patch
Content Avg. [2, 8]: 36 μg/patch
Content Avg. [2, 9]: 169 μg/patch
Content Avg. [2, 10]: 121 μg/patch
Content Avg. [2, 11]: 149 μg/patch
Content Avg. [2, 12]: 243 μg/patch
Content Avg. [2, 13]: 237 μg/patch
Content Avg. [2, 14]: 97 μg/patch
Compound: C[C@@H](O)[C@@H]1NC(=O)[C@H](CCCCN)NC(=O)[C@@H](Cc2c[nH]c3ccccc23)NC(=O)[C@H](Cc2ccccc2)NC(=O)[C@@H](NC(=O)[C@H](N)Cc2ccccc2)CSSC[C@@H](C(=O)N[C@H](CO)[C@@H](C)O)NC1=O [Octreotide acetate, octreotide acetate]
